Where two headings read alike, the source gives them in different places.
What was measured:
Format in all cases: cell-based
[1] = target: T1, THR alpha (Homo sapiens, UniProt P10827); test: HEK293T THR alpha/RXR luciferase reporter assay (Assay 2); settings: for Emax: HEK-293T
T1 construct: expressed in transfected cells; host or cells: HEK293T (ATCC CRL-3216)
T1 sequence (P10827 1-410 isoform P10827-2): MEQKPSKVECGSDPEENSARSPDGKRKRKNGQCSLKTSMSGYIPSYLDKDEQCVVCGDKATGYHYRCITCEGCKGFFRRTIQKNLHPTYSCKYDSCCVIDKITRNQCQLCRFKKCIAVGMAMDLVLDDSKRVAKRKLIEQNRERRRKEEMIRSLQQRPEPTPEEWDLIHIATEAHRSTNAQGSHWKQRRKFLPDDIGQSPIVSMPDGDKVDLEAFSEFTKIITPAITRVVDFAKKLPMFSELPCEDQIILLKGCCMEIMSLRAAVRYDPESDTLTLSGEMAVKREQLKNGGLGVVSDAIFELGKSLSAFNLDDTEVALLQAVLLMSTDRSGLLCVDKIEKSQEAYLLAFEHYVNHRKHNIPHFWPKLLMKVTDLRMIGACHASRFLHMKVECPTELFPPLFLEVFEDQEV
T1 sequence (P19793 1-462 partner): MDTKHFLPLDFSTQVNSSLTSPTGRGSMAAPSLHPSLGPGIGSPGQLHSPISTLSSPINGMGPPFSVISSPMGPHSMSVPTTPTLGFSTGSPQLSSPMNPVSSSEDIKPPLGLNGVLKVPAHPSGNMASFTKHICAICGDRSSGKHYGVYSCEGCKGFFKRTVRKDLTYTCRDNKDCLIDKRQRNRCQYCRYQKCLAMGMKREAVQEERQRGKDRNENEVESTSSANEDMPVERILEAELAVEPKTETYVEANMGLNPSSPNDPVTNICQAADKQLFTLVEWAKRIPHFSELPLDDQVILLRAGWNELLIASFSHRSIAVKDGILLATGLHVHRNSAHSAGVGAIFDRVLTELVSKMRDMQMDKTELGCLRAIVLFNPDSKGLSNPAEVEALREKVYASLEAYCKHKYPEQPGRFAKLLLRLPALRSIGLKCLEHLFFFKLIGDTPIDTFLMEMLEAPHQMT
How it was run: (§1)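 HEK293T cells transiently transfected with TRE-luciferase reporter, RXR, and THR alpha or THR beta plasmid; ten five-fold compound dilutions from DMSO added for 18-24 h. One-Glo luminescence read; percent agonism normalized between negative and positive controls.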

[2] = target: T2, THR beta (Homo sapiens, UniProt P10828); test: HEK293T THR beta/RXR luciferase reporter assay (Assay 2); settings: for Emax: HEK-293T
T2 construct: expressed in transfected cells; host or cells: HEK293T (ATCC CRL-3216)
T2 sequence (P10828 1-461): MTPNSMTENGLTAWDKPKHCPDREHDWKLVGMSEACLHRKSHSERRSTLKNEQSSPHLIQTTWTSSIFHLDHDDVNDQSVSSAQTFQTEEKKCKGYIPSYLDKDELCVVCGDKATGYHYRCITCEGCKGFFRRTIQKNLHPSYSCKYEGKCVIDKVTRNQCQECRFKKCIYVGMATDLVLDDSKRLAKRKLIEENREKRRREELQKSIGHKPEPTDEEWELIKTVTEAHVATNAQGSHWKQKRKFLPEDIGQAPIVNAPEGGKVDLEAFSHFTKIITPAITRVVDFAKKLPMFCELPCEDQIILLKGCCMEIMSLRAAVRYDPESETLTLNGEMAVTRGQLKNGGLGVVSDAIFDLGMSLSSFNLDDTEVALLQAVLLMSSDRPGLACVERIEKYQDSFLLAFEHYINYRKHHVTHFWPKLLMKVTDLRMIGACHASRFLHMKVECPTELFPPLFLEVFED
T2 sequence (P19793 1-462 partner): T1 sequence (P19793 1-462 partner)
How it was run: as §1

[3] = tested on: CPT1A gene expression in Huh-7 cells; test: Huh-7 differential gene expression, CPT1A RT-qPCR (Assay 3); settings: Table 6, Huh-7 cells, CPT1A, 24 hr treatment; for EC50: read-out: Activity category Assay 3 EC50; for Emax: read-out: Activity category Assay 3 Emax
Description: Huh-7 Differential Gene Expression (Assay 3)
Fetal bovine serum (FBS) was incubated with washed resin (50 mg resin/mL FBS; resin weight is dry weight of resin prior to washing) for 5 hr at room temperature on a rotor. The FBS was separated from the resin via centrifugation and incubated with new, washed resin for 18 h at room temperature on a rotor.
Cell Culture and Drug Treatment
Huh-7 cells were cultured in DMEM (10-013-CM, Corning) supplemented with 10% FBS and 1% Pen-Strep at 37° C. under 5% C02. When 70-80% confluence was reached, the cells were removed by trypsinization. The medium was aspirated from the cell culture dish, the cell monolayer was washed with 1×PBS, and 0.05% trypsin, 0.53 mM EDTA (25-052-CV, Corning) solution was added to the dish. After 3 min incubation, the cells were detached completely by repeatedly pipetting solution onto the monolayer. Equal volume of DMEM supplemented with 10% rFBS and 1% Pen-Strep (TH-depleted DMEM) was added to the dish to inactivate the trypsin. The cell suspension was centrifuged at 350×g at room temperature for 3 min. The supernatant was aspirated out and the cell pellet was resuspended in TH-depleted DMEM. […] After 24 hr incubation, the media was replaced with treatment media. All compounds were serially diluted in DMSO and final concentrations were reached by dilution in TH-depleted DMEM (0.1% DMSO). The cells were incubated in treatment media for 24 hr. Treatments were performed in biological duplicates.
After 24 hr in treatment media, the cells were lysed directly on the culture plates and cDNA was produced using the TaqMan™ Fast Advanced Cells-to-CT™ Kit (A35374, Invitrogen) and following the manufacturer's protocol. RT-qPCR for CPT1A (Hs00912671_m1) and two housekeeping genes, ACTB (Hs01060665_g1) and TFG (Hs02832013_g1), was performed using TaqMan™ Fast Advanced Master Mix. RT-qPCR reactions were run on the qTOWER^3 84 G (Analytik Jena) in technical duplicates.
ΔRn values were obtained from the qPCRsoft384 1.0 software and CPT1A gene expression was quantified via the 2-ΔΔCt method. Dose-response curves were generated using GraphPad Prism 8 using four parameter logistic equation without top constraint to derive EC50 and Emax.

[4] = Table 4, THR-alpha, Assay 2, read-out: Activity category Assay 2 (EC50, THR-alpha agonist activity)
[5] = THR-beta, HEK293T reporter assay, read-out: Activity category Assay 2 (EC50, THR-beta agonist)
[6] = Table 5, Assay 2, THRα, read-out: Activity category Assay 2 THRα (Emax)
[7] = Table 5, Assay 2, THRβ, read-out: Activity category Assay 2 THRβ (Emax)

| Structure (SMILES) | EC50 [1, 4] | Activity category Assay 2 THRα (Emax) ([1]; Table 5, Assay 2, THRα) | EC50 [2, 5] | Activity category Assay 2 THRβ (Emax) ([2]; Table 5, Assay 2, THRβ) | Activity category Assay 3 Emax [3] | EC50 [3] | Emax [1, 6] | Emax [2, 7] | EC50 ([3]; Homo sapiens, Huh-7, 24 h) | Emax ([3]; Homo sapiens, Huh-7, 24 h) | EC50 ([1]; HEK293T reporter THRalpha/RXR, read-out: EC50 α) | Emax ([1]; HEK293T reporter THRalpha/RXR, read-out: percent in parentheses below EC50 α (percent agonism / Emax)) | EC50 ([2]; HEK293T reporter THRbeta/RXR, read-out: EC50 β) | Emax ([2]; HEK293T reporter THRbeta/RXR, read-out: percent in parentheses below EC50 β (percent agonism / Emax)) |
| --- | --- | --- | --- | --- | --- | --- | --- | --- | --- | --- | --- | --- | --- | --- |
| CCC(C)c1cc(Oc2c(Cl)cc(-n3nc(N)c(=O)[nH]c3=O)cc2Cl)n[nH]c1=O (stereo not shown) [Compound 39-A] | 50 to 250 nM | A (Emax≥75%) | 50 to 250 nM | A (Emax≥75%) | B (Emax≥50%, and <75%) | < 100 nM |  |  |  |  |  |  |  |  |
| CC(C)c1cc(Oc2c(Cl)cc(-c3nn(C)c(=O)[nH]c3=O)cc2Cl)n[nH]c1=O [Compound 16, 6-[3,5-dichloro-4-[(5-isopropyl-6-oxo-1H-pyridazin-3-yl)oxy]phenyl]-2-methyl-4H-1,2,4-triazine-3,5-dione] | 250 to 1000 nM |  | 50 to 250 nM |  |  |  | > 75% | > 75% | 100 to 1000 nM | < 50% |  |  |  |  |
| Nc1nn(-c2cc(Cl)c(Oc3cc(C4CCC4)c(=O)[nH]n3)c(Cl)c2)c(=O)[nH]c1=O [Compound 40, 6-amino-2-[3,5-dichloro-4-[(5-cyclobutyl-6-oxo-1H-pyridazin-3-yl)oxy]phenyl]-4H-1,2,4-triazine-3,5-dione] | 250 to 1000 nM |  | 50 to 250 nM |  |  |  | > 75% | > 75% | < 100 nM | > 75% | 564 nM | 95% | 58 nM | 92% |
| Nc1nn(-c2cc(Cl)c(Oc3ccc4c(c3)C3(CCCC3)C(=O)N4)c(Cl)c2)c(=O)[nH]c1=O [Compound 83] | < 50 nM |  | < 50 nM |  |  |  | > 75% | 50 to 75% | < 100 nM | > 75% |  |  |  |  |
| Cc1cccc(-c2cc(Oc3c(Cl)cc(-n4nc(N)c(=O)[nH]c4=O)cc3Cl)n[nH]c2=O)c1 [Compound 70, 6-Amino-2-(3,5-dichloro-4-((6-oxo-5-(m-tolyl)-1,6-dihydropyridazin-3-yl)oxy)phenyl)-1,2,4-triazine-3,5(2H,4H)-dione] | 50 to 250 nM |  | < 50 nM |  |  |  | 50 to 75% | > 75% | < 100 nM | 50 to 75% |  |  |  |  |
| Cc1cc(-n2nc(C#N)c(=O)[nH]c2=O)cc(C)c1Cc1ccc2[nH]c(=O)cc(C(C)C)c2c1 [Compound 90, 2-(4-((4-Isopropyl-2-oxo-1,2-dihydroquinolin-6-yl)methyl)-3,5-dimethylphenyl)-3,5-dioxo-2,3,4,5-tetrahydro-1,2,4-triazine-6-carbonitrile] | > 10000 nM |  | > 10000 nM |  |  |  | < 50% | 50 to 75% | > 100 nM | 50 to 75% |  |  |  |  |
| Nc1nn(-c2cc(Cl)c(Oc3cc(C4CC5(CCC5)C4)c(=O)[nH]n3)c(Cl)c2)c(=O)[nH]c1=O [Compound 94] | 1000 to 10000 nM |  | 50 to 250 nM |  |  |  | < 50% | 50 to 75% | 100 to 1000 nM | 50 to 75% |  |  |  |  |

Reference: patent US12180192B2, “Modulators of THR-β and methods of use thereof” (ALIGOS THERAPEUTICS, INC., priority 2019, dated 2024)
